# Values quoted from earlier work as cited in article PMC4084622 (Journal of Medicinal Chemistry, 2014).
# Tested on: M. tuberculosis
# Conditions: M. tuberculosis H37Rv, Erdman, and drug-resistant strains; cited from earlier work
structure (smiles),measurement,value
"CC(C)=CCC/C(C)=C/CNCCNC1C2CC3CC(C2)CC1C3 (stereo not shown) [compound 1, SQ109]",minimum inhibitory concentration (MIC),0.7 to 1.56 µM
